Source: PMC5027844 (Cancer cell, 2016)

Biological target: ARF6 (Homo sapiens, UniProt P62330)
Assay: fluorometric nucleotide exchange assay
Assay type: biochemical

ARF6, sequence (P62330 2-175): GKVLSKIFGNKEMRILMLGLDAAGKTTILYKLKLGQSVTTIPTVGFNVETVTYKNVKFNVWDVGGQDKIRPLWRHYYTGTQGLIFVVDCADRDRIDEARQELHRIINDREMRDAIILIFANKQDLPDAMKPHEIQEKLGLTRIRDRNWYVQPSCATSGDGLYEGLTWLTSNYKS

## NAV-2729
  IC50: 1000 nM
